# Source: ChEMBL document CHEMBL1144148, “DNA polymerase beta inhibitors from Baeckea gunniana” (J Nat Prod, 1999)
# Legend:
# DNA polymerase beta [1] = target: T1, DNA polymerase beta (Rattus norvegicus, UniProt P06766); assay: Inhibition of rat DNA polymerase beta in presence of BSA
# [2] = target: DNA polymerase beta (Rattus norvegicus) (UniProt P06766); assay: Inhibition of rat DNA polymerase beta at 10 ug/mL
# [3] = target: DNA polymerase beta (Rattus norvegicus) (UniProt P06766); assay: Inhibition of rat DNA polymerase beta at 50 ug/mL
# DNA polymerase beta [4] = target: T1, DNA polymerase beta; assay: Inhibition of rat DNA polymerase beta in absence of BSA
IC50 (DNA polymerase beta [1]),inhibition [2],inhibition [3],IC50 (DNA polymerase beta [4]),Compound
8.5 µM,55%,90%,4.8 µM,C[C@H]1[C@H](C)CC[C@]2(C(=O)O)CC[C@]3(C)C(=CC[C@@H]4[C@@]5(C)CC[C@H](O)C(C)(C)[C@@H]5CC[C@]43C)[C@H]12 [URSOLIC ACID]
7.5 µM,42%,90%,3.7 µM,CC1(C)CC[C@]2(C(=O)O)CC[C@]3(C)C(=CC[C@@H]4[C@@]5(C)CC[C@H](O)C(C)(C)[C@@H]5CC[C@]43C)[C@@H]2C1 [OLEANOLIC_ACID]
5.3 µM,65%,80%,3.2 µM,C=C1[C@H]2C3=CC[C@@H]4[C@@]5(C)CC[C@H](O)C(C)(C)[C@@H]5CC[C@@]4(C)[C@]3(C)CC[C@@]2(C(=O)O)CC[C@H]1C
5.6 µM,68%,82%,2.5 µM,C=C1CC[C@]2(C(=O)O)CC[C@]3(C)[C@H](CC[C@@H]4[C@@]5(C)CC[C@H](O)C(C)(C)[C@@H]5CC[C@]43C)C2=C1C
